# Results from US20220298038A1, “A METHOD FOR DISRUPTING BIOFILMS IN WASTEWATER SYSTEMS” (GRENOF PTY LTD, priority 2019, published 2022).
# Read-outs that look alike come from different tables or passages of the source.
# What was measured:
# [1] = cited from earlier work
# [2] = cited from earlier work; remark: listed apart in the source
# [3] = test system: biofilm in a sewerage network; assay: Trial 2: H2S Odalog monitoring, manhole 200 m from Location 2; design: species or system sulphate reducing microbes and methanogenic archaea
# [4] = cited from earlier work; remark: listed apart in the source
# biofilm = assay: Biofilm disrupting activity compared with other oxidants
# Method: Peracetic acid is typically more reactive at higher temperature (5 times more reactive at 35° C. than 15° C.). […] This is believed to be due to the nature and type of radicals formed upon cleavage of the peracetic acid peroxy bond.
# [5] = 35° C. vs 15° C.; cited from earlier work
# Catalase = conditions: cited from earlier work
# [6] = cited from earlier work; remark: listed apart in the source
# [7] = Days 67-68, H2O2 330 mg/L after F1 dosing stopped
# [8] = standard oxidation potential (at pH 7)
smiles,measurement,setting,value
"S [Bisulphide (HS^−), Bisulphide]",Mole Fraction of Species (%),[1]; pH 4,<1%
same,Mole Fraction of Species (%),[1]; pH 5,~1%
same,Mole Fraction of Species (%),[1]; pH 5.5,3%
same,Mole Fraction of Species (%),[1]; pH 6.0,9%
same,Mole Fraction of Species (%),[1]; pH 6.5,24%
same,Mole Fraction of Species (%),[1]; pH 7.0,50%
same,Mole Fraction of Species (%),[1]; pH 7.5,76%
same,Mole Fraction of Species (%),[1]; pH 8.0,91%
same,Mole Fraction of Species (%),[1]; pH 8.5,97%
same,Mole Fraction of Species (%),[1]; pH 9.0,~99%
same,Mole Fraction of Species (%),[1]; pH 10.0,>99%
[O][Cl+][O-] [Chlorine Dioxide],Oxidation Potential,[2]; pH 7,0.95 eV
"OO [Formulation H2O2, hydrogen peroxide]",Avg. H2S,[3]; [7],0.3 ppm
same,Peak H2S,[3]; [7],3 ppm
same,Avg. H2S,"[3]; Days 69-81, H2O2 330 mg/L",2.8 ppm
same,Peak H2S,"[3]; Days 69-81, H2O2 330 mg/L",72 ppm
same,Avg. H2S,"[3]; Days 82-86, H2O2 1,000 mg/L",3.7 ppm
same,Peak H2S,"[3]; Days 82-86, H2O2 1,000 mg/L",33 ppm
same,Oxidation Potential,[2]; [8],1.78 eV
"S [Hydrogen Sulphide (H2S), Hydrogen Sulphide]",Mole Fraction of Species (%),[1]; pH 4,>99%
same,Mole Fraction of Species (%),[1]; pH 5,~99%
same,Mole Fraction of Species (%),[1]; pH 5.5,97%
same,Mole Fraction of Species (%),[1]; pH 6.0,91%
same,Mole Fraction of Species (%),[1]; pH 6.5,76%
same,Mole Fraction of Species (%),[1]; pH 7.5,24%
same,Mole Fraction of Species (%),[1]; pH 8.0,9%
same,Mole Fraction of Species (%),[1]; pH 8.5,3%
same,Mole Fraction of Species (%),[1]; pH 9.0,~1%
same,Mole Fraction of Species (%),[1]; pH 10.0,<1%
O=[O+][O-] [Ozone],Oxidation Potential,[2]; pH 7,2.07 eV
"CC(=O)OO [Peracetic Acid, peroxyacetic acid]",DT50 (25° C.),[4]; pH 4,46.7 h
same,DT50 (25° C.),[4]; pH 7,31.7 h
same,DT50 (25° C.),[4]; pH 9,3.6 h
same,biofilm disrupting activity compared with hydrogen peroxide,biofilm; vs hydrogen peroxide,stronger biofilm disrupting activity
same,biofilm disrupting activity compared with ozone,biofilm; vs ozone,stronger biofilm disrupting activity
same,reactivity at 35° C. relative to 15° C.,[5],5 times
same,Oxidation Potential,[2]; pH 7,1.81 eV
OCl [Sodium Hypochlorite],Oxidation Potential,[2]; [8],0.94 eV
CCOO [ethyl hydroperoxide],binding by catalase,Catalase,rapidly
same,catalysis by catalase,Catalase,very inefficient
CCCCCCCCCCCC(=O)OO [peroxydodecanoic],solubility in water,[6]; pH 7,very limited solubility
CCCCCCCCCCCCCCCCCC(=O)OO [peroxyoctadecanoic],solubility in water,[6]; pH 7,very limited solubility
CCCCCCCC(=O)OO [peroxyoctanoic acid],solubility in water,[6]; (at pH 7),slightly soluble
